Data as given in PubChem BioAssay (NCI).
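Method: 48-hour compound exposure of cells in 96-well plates, five concentrations, linear interpolation of endpoints. TGI marks complete inhibition of growth.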

What was measured:
Assay in all cases: inhibition of tumour cell growth, NCI panel, 48 h
A549 NSCLC = tested on: A549 NSCLC
CAKI-1 renal = tested on: CAKI-1 renal
COLO 205 colon = tested on: COLO 205 colon
HCC-2998 colon = tested on: HCC-2998 colon
K-562 leukemia = tested on: K-562 leukemia
M14 melanoma = tested on: M14 melanoma
MALME-3M melanoma = tested on: MALME-3M melanoma
MOLT-4 leukemia = tested on: MOLT-4 leukemia
OVCAR-8 ovarian = tested on: OVCAR-8 ovarian
SK-MEL-5 melanoma = tested on: SK-MEL-5 melanoma
SR leukemia = tested on: SR leukemia
TK-10 renal = tested on: TK-10 renal
UACC-62 melanoma = tested on: UACC-62 melanoma

Row | SMILES | TGI (A549 NSCLC) | TGI (CAKI-1 renal) | TGI (COLO 205 colon) | TGI (HCC-2998 colon) | TGI (K-562 leukemia) | TGI (M14 melanoma) | TGI (MALME-3M melanoma) | TGI (MOLT-4 leukemia) | TGI (OVCAR-8 ovarian) | TGI (SK-MEL-5 melanoma) | TGI (SR leukemia) | TGI (TK-10 renal) | TGI (UACC-62 melanoma)
1 | c1ccc(C(NCC2CCO2)(c2ccccc2)c2ccccc2)cc1 (centres undefined) | 30.6 µM | 55.2 µM | > 100 µM | 30.6 µM | > 100 µM | 32.1 µM | 35.1 µM | > 100 µM | 26.6 µM | 63.9 µM | > 100 µM | 28.4 µM | 32 µM
2 | CN(C)CCNC(=O)c1ccc(NCCCN(C)CCCNc2ccc(C(=O)NCCN(C)C)c3[nH]c4ccccc4c(=O)c23)c2c(=O)c3ccccc3[nH]c12 | 0.313 µM | 2.59 µM | 0.294 µM | 0.177 µM | – | 1.46 µM | 0.302 µM | 1.09 µM | 1.14 µM | 1.5 µM | 0.532 µM | 1.98 µM | 0.353 µM
3 | CSc1ccc(-c2cc(-c3nc4ccccc4[nH]3)no2)cc1 | 90.8 µM | 70 µM | > 100 µM | 32.1 µM | 84.4 µM | 56.2 µM | > 100 µM | 37.2 µM | > 100 µM | 33.4 µM | > 100 µM | > 100 µM | 39.1 µM
4 | CCC1(N=[N+]=[N-])C(=O)c2ccccc2N(C)C1=O (centres undefined) | > 100 µM | > 100 µM | > 100 µM | > 100 µM | > 100 µM | > 100 µM | > 100 µM | > 100 µM | > 100 µM | > 100 µM | > 100 µM | > 100 µM | > 100 µM
5 | O=C1CC(c2ccccc2)C2(C(=O)NC(=S)NC2=O)C(c2ccccc2)C1 (centres undefined) | – | > 75 µM | > 75 µM | > 75 µM | > 75 µM | > 75 µM | > 75 µM | > 75 µM | > 75 µM | > 75 µM | > 75 µM | > 75 µM | > 75 µM
6 | O=C(NCCN1CCOCC1)c1cn2c(ccc3sc4ccccc4c(=O)c32)n1 | > 100 µM | > 100 µM | > 100 µM | 54.1 µM | > 100 µM | – | > 100 µM | > 100 µM | > 100 µM | 60.6 µM | > 100 µM | > 100 µM | –
